Consider 4 molecules from patent publication US5906918A, “Compositions and methods for measurement of oxidative DNA damage” (Health Research Inc., priority 1997, dated 1999).

Test [1] deals with T1, nuclease P1 (Penicillium citrinum, UniProt P24289).
T1 sequence (P24289 1-270): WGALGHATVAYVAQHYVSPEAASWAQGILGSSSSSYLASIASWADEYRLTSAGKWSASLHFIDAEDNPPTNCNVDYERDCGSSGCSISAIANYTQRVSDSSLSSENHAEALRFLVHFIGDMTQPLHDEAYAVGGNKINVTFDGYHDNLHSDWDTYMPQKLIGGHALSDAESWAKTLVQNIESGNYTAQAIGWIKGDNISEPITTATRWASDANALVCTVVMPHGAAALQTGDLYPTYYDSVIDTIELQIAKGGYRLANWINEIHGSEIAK
In words: Endonuclease (nuclease P1) turnover rate for hydrolysis of modified dinucleoside monophosphates. Type of test: biochemical. As to conditions: 6 nmol substrate in 100 μl 60 mM sodium acetate buffer pH 5.3 with zinc chloride, 50 ng nuclease P1, 37° C., HPLC analysis. As to the method: The endonuclease turnover rate was measured in terms of the number of substrate molecules hydrolyzed per minute per molecule of enzyme. The substrates were modified dinucleoside monophosphates comprising the DNA base modifications illustrated in FIG. 1. The respective unmodified dinucleoside monophosphates were purchased commercially, with the exceptions of d(GpG), d(GpC), d(GpA), and d(GpT) which were prepared using methods previously described (Paul et al., 1988, Int. J. Radiat. Biol. 54:403-415). A solution of each the unmodified dinucleoside monophosphates was X-irradiated, and the corresponding modified dinucleoside monophosphate was isolated by reverse-phase HPLC (see, e.g., Schroder et al., 1995, Int. J. Radiat. Biol. 68:509-23; and Box et al., 1995, In Radiation Damage in DNA, eds. Fuciarelli and Zimbrick, publs. Battelle Press). The one exception to producing modified dinucleoside monophosphates was the production of the DNA base modification thymine glycol. Modified dinucleoside monophosphates bearing the thymine glycol modification were prepared by treating dTpA with osmium tetroxide (see, e.g., Belfi et al., 1986, supra). The DNA base modifications were identified using proton nuclear magnetic resonance spectroscopy (see, e.g., Schroder et al., 1995, Int. J. Radiat. Biol. 68:509-23).
Concentrations of the modified dinucleoside monophosphates were determined spectrophotometrically at 260 nm. The rates of hydrolysis for the modified dinucleoside monophosphates by endonuclease were obtained from measurements of equimolar amounts of the substrate modified dinucleoside monophosphate (6 nmol) in 100 μl of 60 mM sodium acetate buffer (pH 5.3, containing […] zinc chloride). Hydrolysis was initiated by the addition of the endonuclease (50 ng of nuclease P1 in 2 μl buffer) and the reactants were incubated in a 37° C. water bath. At varying times, hydrolysis was terminated by the addition of 15 μl of 1M Tris, and rapid freezing in a liquid nitrogen bath. The products of digestion were analyzed by injecting the digest onto a C-18 reverse phase HPLC column, with elution using a 5%-53% linear gradient of CH3 CN/0.1M ammonium acetate buffer, pH 7.0 at a 1.0 ml/minute flow rate. Moles of protein were calculated from the weight of the material and the known molecular weights for the constituents. The results of the measurement of the endonuclease turnover rates (R, as measured in terms of molecules hydrolyzed per minute per molecule of enzyme) for each of the modified dinucleoside monophosphates tested is illustrated in Table 1.

Test [2] deals with T1, nuclease P1. As to conditions: endonucleases such as nuclease P1; Maccubbin et al., 1993; cited from earlier work.

Structures are written as SMILES.

Take `Nc1ncnc2c1ncn2[C@H]1C[C@H](O)[C@@H](COP(=O)(O)O[C@H]2C[C@H](NC=O)O[C@@H]2CO)O1` [d(T*pA) formamido remnant]: at nuclease P1 [1], the “endonuclease turnover rate R” value is “no hydrolysis detected”. Further, the “hydrolysis by endonuclease of the phosphoester bond 3' to the modified nucleoside” value on nuclease P1 [2] is “do not hydrolyze”.

As for `Nc1ccn([C@H]2C[C@H](O)[C@@H](COP(=O)(O)O[C@H]3C[C@H](NC=O)O[C@@H]3CO)O2)c(=O)n1` [d(T*pC) formamido remnant], the “endonuclease turnover rate R” value on nuclease P1 [1] was “no hydrolysis detected”.

Consider `Nc1nc2c(ncn2[C@H]2C[C@H](O)[C@@H](COP(=O)(O)O[C@H]3C[C@H](NC=O)O[C@@H]3CO)O2)c(=O)[nH]1` [d(T*pG) formamido remnant], for which the “endonuclease turnover rate R” value on nuclease P1 [1] is on record as “no hydrolysis detected”.

As for `Cc1cn([C@H]2C[C@H](O)[C@@H](COP(=O)(O)O[C@H]3C[C@H](NC=O)O[C@@H]3CO)O2)c(=O)[nH]c1=O` [d(T*pT) formamido remnant], the “endonuclease turnover rate R” value on nuclease P1 [1] is reported as “no hydrolysis detected”.
